Results on 4 compounds are retold here after US10584103B2 (Sanford Burnham Prebys Medical Discovery Institute, priority 2014, dated 2020).

Assay [1] concerns neurotensin-deficient mice. The note with it: cited from earlier work.
A further assay deals with NTR1 (Homo sapiens (Human), UniProt P30989). As to the kind of experiment: NTR1 dose response, high-content imaging assay in NTR1-U2OS cells (beta-arrestin-GFP). Type of assay: cell-based. From the text:
The cell lines utilized in the high-content imaging assays, which include the NTR1-, NTR2-, and GPR35-U2OS osteosarcomas, were obtained from the laboratory of Dr. Lawrence Barak at the Duke University Medical Center. The media used in the culture of the cell lines, as well as the assays themselves, consisted of Minimum Essential Medium (15-010-CM) and L-glutamine (25-005-CL) from Cellgro/Mediatech (Manassas, Va.), fetal bovine serum (SH30396.03) from Hyclone (Logan, Utah), penicillin-streptomycin solution (PS-20) from Omega Scientific in Tarzana, Calif., G418 (ant-gn-1) from Invivogen (San Diego, Calif.), and zeocin (R250-01) from Invitrogen (Carlsbad, Calif.). Cell lines were cultured in T225 tissue culture flasks (431082) supplied by Corning (Corning, N.Y.). Additional reagents employed include Dulbecco's Phosphate-Buffered Saline (DPBS) (21-031CV) from Cellgro/Mediatech, Trypsin-EDTA 0.05% (25300) from Invitrogen, paraformaldehyde (30528954) from Acros Organics (Geel, Belgium), Hoechst 33342 (H3570) from Invitrogen. The high-content assays were run in 1536-well plates (29326) supplied by Aurora Biotechnology (Poway, Calif.) and utilized aluminum plate seals (T592100) from E&K Scientific (Santa Clara, Calif.). […]

Sequence of NTR1 (P30989 whole entry, species assumed): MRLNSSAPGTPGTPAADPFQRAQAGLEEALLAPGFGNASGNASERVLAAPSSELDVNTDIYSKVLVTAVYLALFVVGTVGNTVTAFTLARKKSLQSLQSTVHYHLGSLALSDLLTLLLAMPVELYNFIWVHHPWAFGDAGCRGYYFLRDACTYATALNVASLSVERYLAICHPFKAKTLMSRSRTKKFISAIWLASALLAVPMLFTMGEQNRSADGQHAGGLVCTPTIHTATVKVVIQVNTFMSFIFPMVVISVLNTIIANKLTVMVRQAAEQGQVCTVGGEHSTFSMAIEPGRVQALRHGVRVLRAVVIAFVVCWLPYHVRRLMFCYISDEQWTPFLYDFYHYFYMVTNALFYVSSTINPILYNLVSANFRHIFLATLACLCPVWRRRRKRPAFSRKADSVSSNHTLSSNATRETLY

As to `CN1CCN(C2=Nc3cc(Cl)ccc3Nc3ccccc32)CC1` [clozapine], in assay [1], the “augmentation of PPI” value was “augmented PPI normally”.
As for `O=C(CCCN1CCC(O)(c2ccc(Cl)cc2)CC1)c1ccc(F)cc1` [haloperidol], the “augmentation of PPI” value in assay [1] is given as “ineffective”.
On to `OCCOCCN1CCN(C2=Nc3ccccc3Sc3ccccc32)CC1` [quetiapine], for which, in assay [1], the “augmentation of PPI” value was “ineffective”.
As for `C#Cc1nc(N2CCC(c3ccccc3OC)CC2)c2cc(N(C)CCO)ccc2n1` [Example 192, 2-({2-Ethynyl-4-[4-(2-methoxy-phenyl)-piperidin-1-yl]-quinazolin-6-yl}-methyl-amino)-ethanol], the EC50 result on NTR1 was “et”.
